“Also recorded” adds a separate entry of the source. No end group written: not given here.
Legend:
[1] = tested on: S. aureus (MRSA); assay type: cell-based, Staphylococcus aureus; conditions: mean of three; 16 to 20 hours at 35° C.
[2] = tested on: S. epidermidis C621; assay type: cell-based, Staphylococcus epidermidis; conditions: mean of three; 16 to 20 hours at 35° C.
[3] = tested on: S. pyogenes M76; assay: Antimicrobial assays II, NCCLS broth microdilution MIC; assay type: cell-based, Streptococcus pyogenes; conditions: mean of three; 16 to 20 hours at 35° C.
[4] = tested on: S. pyogenes ATCC19615; assay: as above; assay type: cell-based, Streptococcus pyogenes; conditions: mean of three, in µg/mL
[5] = tested on: S. pneumoniae C718; assay: as above; assay type: cell-based, Streptococcus pneumoniae; conditions: mean of three
[6] = tested on: S. pneumoniae C719; assay: as above; assay type: cell-based, Streptococcus pneumoniae; conditions: mean of three, in µg/mL
[7] = tested on: P. acne ATCC 6919; assay: as above; assay type: cell-based, Propionibacterium acnes; conditions: mean of three, in µg/mL
[8] = tested on: E. coli UB1005; assay type: cell-based, Escherichia coli; conditions: mean of three; 16 to 20 hours at 35° C.; in µg/mL
[9] = tested on: S. typhimurium 14028S; assay type: cell-based, Salmonella typhimurium; conditions: mean of three; 16 to 20 hours at 35° C.; in µg/mL
[10] = tested on: P. aeruginosa H374; assay type: cell-based, Pseudomonas aeruginosa; conditions: mean of three; 16 to 20 hours at 35° C.
[11] = in vitro; assay type: cell-based, human; conditions: human, human red blood cells, pH 7, hemolytic assay, concentration at 50% hemolysis, 1 hour at 37° C.; read-out: LD50
[12] = tested on: hairless rat skin burn wound; assay: In vivo wound healing, TCA chemically induced skin burn wound; conditions: for Epidermal thickening / Fibroblast cells in test area / Inflammatory response area / Leukocyte cells in test area / Wound closure: rat model, TCA burn treated by peptide; for Wound closure: 26 days
Description: The hairless rat was chosen as a suitable test model. Female hairless rats of 100 to 150 grams weight and 8 to 12 weeks age were used in the study.
As an alternative, 70% trichloroacetic (TCA) dissolved in 70% ethanol was employed to induce the dermal erosion patches. […] As the chemical burn agent, the TCA treatment inflicted on the rats far less trauma and mortality than occurred with the Phenol model.
The experimental Protocol procedure steps were as follows: • 1. The animal was anesthetized (40 mg/kg Phenobarbital). • 2. Color photographs of the animal's back (with six separate peels) were taken before each treatment and daily thereafter. • 3. Rat skin surface was prepared by wiping with 70% ethanol. Filter paper discs (1.1 cm diameter) were soaked in 70% TCA/ethanol. • 4. The discs were placed on the back of the hairless rat for 30 minutes [6 disks providing for 2 control (no peptide treatment) disks and 4 disks for peels to receive peptide treatment.] • 5. After a 30 minute burn the discs were removed. Twenty four hours later, different peptide solutions (1500 ppm in saline) were applied to four peels, and saline was applied to the two control peels. • 6. Peptide solutions (and saline for the controls) were applied to the six wounds with a soft brush each day thereafter. • 7. It took approximately one month for the wounds to heal (complete skin closure with stabilized epidermis), after which the animal was sacrificed. • 8. The treated skin was harvested, section stained with trichrome, and mounted on slides.
The percentage of wound closure for each peel (six sites) was measured each day until the animal was sacrificed. The percentage closure was determined by measuring on the animal photographs the area of the remaining scab relative to the area of the initial scar after the burn. These measurements were made by digitizing and analyzing the peels using the Sigma Plot ProScan 4 program.
This provided a measure of the post-TCA burn treatment of the inflammatory response in each peel site.
The extent of epidermal thickening (hyperkeratosis) at each site was also determined by measurement with the Sigma Plot program applied to the stained section slides of the various wound areas and the normal untreated skin (control) surrounding the peels. At magnifications of 100× to 320×, the microphotographs of the color slides provided a powerful tool for such quantification of the extent of hyperkeratosis evident in each peel.
Treatment of the section slides with selective stains produced identifiable evidence of the presence of both leukocyte and fibroblast cells in the wound areas. This was also quantified by the Sigma Plot program.
The above described animal model and protocols were employed in the testing of approximately 20 of the peptides listed in Table 48 (and other peptides for comparison) as preferred FLAK peptides for wound healing.

[13] = tested on: laminin; assay: Laminin stimulation, ELISA on fibroblast cell lines; assay type: cell-based
Protocol: Fibroblast cell lines were cultured under standard conditions and assayed for collagen and laminin using an ELISA system manufactured by Panvera (Madison, Wis.). Antibodies for collagen and laminin manufactured by Takara Shuzo Co., Ltd Japan. […] The other three peptides tested neither stimulated nor inhibited production (i.e. no effect was observed).

[14] = tested on: Pseudomonas aeruginosa; assay: Serum inactivation of peptides, serum MIC; assay type: cell-based; conditions: for MIC 30 min treatment: sheep serum 37° C. 30 minutes; for MIC 2 hr treatment: sheep serum 37° C. 2 hours
Protocol: Subsequently, the serum MICs against Pseudomonas aeruginosa were conducted to determine extent of serum inactivation of the peptides.

Substance | S. aureus (MRSA) MIC [1] [µg/mL] | S. epidermidis C621 MIC [2] [µg/mL] | S. pyogenes M76 MIC [3] [µg/mL] | S. pyogenes MIC [4] | S. pneumoniae MIC [5] [µg/mL] | S. pneumoniae MIC [6] | P. acne MIC [7] | E. coli UB1005 MIC [8] | S. typhimurium 14028S MIC [9] | P. aeruginosa H374 MIC [10] [µg/mL] | HC50 at 1 h [11] [µg/mL] | Epidermal thickening [12] | Fibroblast cells in test area [12] | Inflammatory response area [12] | Leukocyte cells in test area [12] | Wound closure [12] | Laminin stimulation [13] [%] | further results
FAVGLRAIKRALKKLRRGVRKVAKDL-NH2 [P157, reference compound] | 32 | 4 | 8 | 8 | 128 | 16 | 4 | 8 | 8 | 8 | 850 | 80 % of control (TCA only) | 450 % of normal skin | 25 % of healed scar | 265 % of normal skin | 95.2 % of initial wound |  | 
MPKWKVFKKIEKVGRNIRNGIVKAGPAIAVLGEAKALG-NH2 [P12, reference compound] |  |  |  |  |  |  |  | 1 | 4 | 8 |  |  |  |  |  |  | 0 | 
FALKALKKLKKALKKAL-NH2 [P153] | 16 | 4 | 2 | 2 | 32 | 8 | 4 |  |  |  | 800 | 25 % of control (TCA only) | 350 % of normal skin | 7 % of healed scar | 235 % of normal skin | 99.1 % of initial wound | 32 | rate of wound closure ([12]; hairless rat, full wound closure at 26 days): small advantage in rate of wound closure over the other peptides and no peptide; ability to limit post-TCA burn inflammatory responses ([12]; hairless rat, peptide solutions 1500 ppm in saline, topical daily): superior in this respect; hyperkeratosis (epidermal thickening) ([12]; hairless rat, peptide solutions 1500 ppm in saline, topical daily, listed as SEQ ID NO:115): lowest evidence of hyperkeratosis (epidermal thickening); also recorded: substantially no hyperkeratosis as compared to the TCA burn untreated control; MIC 30 min treatment ([14]; first of two columns): 10 µg/mL; MIC 30 min treatment ([14]; second of two columns): 5 µg/mL; MIC 2 hr treatment ([14]; first of two columns): 20 µg/mL; MIC 2 hr treatment ([14]; second of two columns): 5 µg/mL; change of activity by exposure to serum (serum MIC against Pseudomonas aeruginosa) ([14]; sheep serum, […], 37° C. for 30 minutes or 2 hours): only modestly decreased
